According to patent US10215751B2, “Carboxy X rhodamine analogs” (PROMEGA CORPORATION, priority 2011, dated 2019):

Biological target: T1, NanoLuc luciferase-PKC alpha fusion protein (Homo sapiens, UniProt P17252)
T1 construct: expressed in transfected cells; host or cells: HEK293 cells, transient transfection with pF5 plasmid
Assay: BRET negative control with cells expressing NanoLuc fused to an irrelevant kinase
Assay type: cell-based
Details: HEK293 cells expressing NanoLuc-PKCalpha (negative control)
Experimental: HEK293 cells (20,000 cells per well in 96-well format) were transiently transfected (Fugene HD, Promega Corporation) with pF5 plasmid DNA (Promega Corporation) encoding a NanoLuc® luciferase-p38alpha kinase fusion protein. As a negative control, some cells were transfected with a pF5 plasmids DNA encoding a NanoLuc luciferase-PKC alpha fusion protein. On the second day post transfection, the cell medium was replaced with serum-free Opti-MEM (Life Technologies) with or without 50 ug/ml digitonin. […] A furimazine substrate (PBI 3939), a substrate for the NanoLuc luciferase, then was added to cells to a final concentration of 20 uM. BRET ratios were recorded using a Varioskan luminometer at the following wavelengths: 630 nm (acceptor)/450 nm (donor). Acceptor/donor values were used to determine BRET ratio (FIGS. 21 and 22).

Cc1ccc(-n2nc(C(C)(C)C)cc2NC(=O)Nc2ccc(OCCN3CCOCC3)c3ccccc23)cc1 [BIRB796, reference compound]
Effect of unlabeled BIRB796 on BRET signal with PBI 4838: not affected
